# From US5192756A, “Aminosterol antibiotic” (The Children's Hospital of Pennsylvania, priority 1992, dated 1993)
# No end group written: not given here.
# How the values were obtained:
# [1] = test system: E. coli; assay: Minimal inhibitory concentration, E. coli; format: cell-based; conditions: E. coli ATCC 25922, 1/2×TSB, 37° C., 18 to 24 hours; for MIC: Escherichia coli, ATCC25922
# Experimental: (§1) Squalamine was assayed in vitro against several microbial organisms to evaluate its spectrum of activity.
# (§2) Minimal inhibitory concentrations for the bacteria and yeast were determined by incubating 0.9-11×10^5 colony-forming units/ml of log-phase organisms in 1/2×tryptica soy broth (TSB) with increasing concentrations of sample in static 96-2311 microtiter plates (Corning, Inc., Corning, N.Y.) at 37° C. for 18 to 24 hours. The minimal inhibitory concentration is the concentration of sample at which no growth was observed. Control incubation in the absence of […] served to set a baseline value.
# (§3) Initial sample concentrations were 2 mg/ml in 250 mM sodium acetate pH 6.6, 11.2 mM HCl, except taurolithocholic acid 3-sulfate which was 2 mg/ml in 50 mM sodium acetate, and squalamine to which HCl was not added because it was acidic following the last step of purification. Spermidine HCl, taurolithocholic acid 3-sulfate, melittin, holothurin and ampicillin were purchased from Sigma (St. Louis, Miss.). CHAPS (3-[(3-cholamidopropyl)dimethylammonio]-1-propane sulfonate dihydrate) was purchased from Aldrich (Milwaukee, Wis.). Conessine was purchased from Aldrich Rare Chemicals Division (Milwaukee, Wis.). Magainin-II amide and CPF-amide were made by Magainin Pharmaceuticals, Inc. (Plymouth Meeting, Penn.). The CPF peptide used in the assay has the sequence […]-NH2. (Richter, K., et al., J. Biol. Chem. 261, 3676-3680 (1986).
# [2] = test system: Staph. aureus; assay: Minimal inhibitory concentration, Staph. aureus; format: cell-based; conditions: Staph. aureus ATCC 29213, 1/2×TSB, 37° C., 18 to 24 hours; for MIC: Staphylococcus aureus, ATCC29213
# Experimental: as §1, §2, §3
# [3] = test system: Pseudomonas aeruginosa; assay: Minimal inhibitory concentration, Pseudomonas aeruginosa; format: cell-based; conditions: Pseudomonas aeruginosa ATCC 27853, 1/2×TSB, 37° C., 18 to 24 hours; for MIC: ATCC27853
# Experimental: as §1, §2, §3
# [4] = test system: Strep. faecalis; assay: Minimal inhibitory concentration, Strep. faecalis; format: cell-based; conditions: Strep. faecalis ATCC 29212, 1/2×TSB, 37° C., 18 to 24 hours; for MIC: Enterococcus faecalis, ATCC29212
# Experimental: as §1, §2, §3
# [5] = test system: Candida albicans; assay: Minimal inhibitory concentration, Candida albicans; format: cell-based; conditions: for MIC: ATCC14053; for MIC / Minimal Inhibitory Concentration: Candida albicans ATCC 14053, 1/2×TSB, 37° C., 18 to 24 hours
# Experimental: as §1, §2, §3
# [6] = test system: Proteus vulgaris; assay: Minimal inhibitory concentration, Proteus vulgaris; format: cell-based; conditions: Proteus vulgaris ATCC 13315, 1/2×TSB, 37° C., 18 to 24 hours; for MIC: ATCC13315
# Experimental: as §1, §2, §3
# [7] = test system: Serratia marcescens; assay: Minimal inhibitory concentration, Serratia marcescens; format: cell-based; conditions: Serratia marcescens ATCC 8100, 1/2×TSB, 37° C., 18 to 24 hours; for MIC: ATCC8100
# Experimental: as §1, §2, §3
# [8] = test system: Paramecium caudatum; assay: Minimal disruptive concentration, Paramecium caudatum; format: cell-based; conditions: for MIC / Minimal Inhibitory Concentration (minimal disruptive concentration for the protozoa): 1% trypticase soy broth, light microscopy for ten minutes; for MIC: read-out: Minimal Inhibitory Concentration (minimal disruptive concentration for the protozoa)
# Experimental: as §1, §3
# (§4) Minimal disruptive concentration (the concentration at which physical disruption of the protozoa occurred) was determined for the protozoa by adding […] of sample (in sodium acetate as above) to […] of 1% trypticase soy broth containing P. caudatum (Nasco, Fort Atkinson, Wiss,). Organisms were observed by light microscopy for ten minutes.
# [9] = Hemolytic activity against human erythrocytes; format: cell-based; conditions: human; 92 μg/ml; 10% erythrocytes in PBS, 37° C., ten minutes; Triton X-100 = 100%
# Experimental: (§5) Because of its structural resemblance to steroidal detergents, squalamine was assayed for its hemolytic activity against human erythrocytes.
# (§6) Each sample was diluted in H2 O and was added to a 10% (vol/vol) suspension of human erythrocytes in phosphate buffered saline (PBS). Erythrocytes were collected with heparin and washed once in 1×PBS before the assay. Samples were incubated at 37° C. for ten minutes, centrifuged at 12,000× g for one minute, and the OD350 of the supernatant was measured. Addition of Triton X-100 (final concentration 0.1%) defined 100% hemolysis.
# [10] = test system: several microbial organisms; assay: In vitro antimicrobial spectrum (bacteria, fungi, protozoa), in words; format: cell-based; conditions: for antibiotic activity (in words): bacteria, fungi, protozoa, concentration range studied
# Experimental: as §1, §2, §3, §4
# [11] = test system: human erythrocytes; assay: Hemolytic activity against human erythrocytes; format: cell-based
# Experimental: as §5, §6
# [12] = test system: E. coli D31; assay: Protease resistance of antimicrobial activity (proteinase K); format: in vitro ADME; conditions: proteinase K 2 mg/ml, one hour, 37° C.; E. coli D31 lawn
# Experimental: Proteinase K (final concentration 2 mg/ml) was added to 0.2 μg/μl squalamine or 0.8 μg/μl magainin II amide in 1×phosphate-buffered saline. After a one hour incubation at 37° C., 2 μl of each sample was applied to the lawn of E. coli D31.
Molecule,MIC [1],MIC [2],MIC [3],MIC [4],MIC [5],MIC [6],MIC [7],MIC [8],hemolysis at 10 min [9],antibiotic activity (in words) [10],Minimal Inhibitory Concentration [1],Minimal Inhibitory Concentration [2],Minimal Inhibitory Concentration [3],Minimal Inhibitory Concentration [4],Minimal Inhibitory Concentration [5],Minimal Inhibitory Concentration [6],Minimal Inhibitory Concentration [7],Minimal Inhibitory Concentration (minimal disruptive concentration for the protozoa) [8],further results
"CC1(C)S[C@@H]2[C@H](NC(=O)[C@H](N)c3ccccc3)C(=O)N2[C@H]1C(=O)O [Ampicillin, ampicillin]",2 to 4 µg/mL,1 µg/mL,62 to 125 µg/mL,< 0.25 µg/mL,> 125 µg/mL,8 to 16 µg/mL,4 to 62 µg/mL,> 65 µg/mL,< 0.5%,–,–,–,–,–,–,–,–,–,–
"C[C@H](CCC(=O)NCCC[N+](C)(C)CCCS(=O)(=O)[O-])[C@H]1CC[C@H]2[C@@H]3[C@H](O)C[C@@H]4C[C@H](O)CC[C@]4(C)[C@H]3C[C@H](O)[C@]12C [CHAPS, 3-[(3-cholamidopropyl)dimethylammonio]-1-propane sulfonate dihydrate]",> 500 µg/mL,> 500 µg/mL,> 500 µg/mL,250 to 500 µg/mL,> 500 µg/mL,> 500 µg/mL,> 500 µg/mL,> 260 µg/mL,< 0.5%,inactive as an antibiotic,–,–,–,–,–,–,–,–,–
C[C@H]1[C@H]2CC[C@H]3[C@@H]4CC=C5C[C@@H](N(C)C)CC[C@]5(C)[C@H]4CC[C@]23CN1C [Conessine],> 500 µg/mL,> 500 µg/mL,> 500 µg/mL,> 500 µg/mL,31 to 62 µg/mL,> 500 µg/mL,> 500 µg/mL,16 to 33 µg/mL,< 0.5%,–,–,–,–,–,–,–,–,–,antifungal activity (in words) ([5]; Candida): exhibits antifungal (Candida) and antiprotozoan (Paramecium caudatum) activity; antiprotozoan activity (in words) [8]: exhibits antifungal (Candida) and antiprotozoan (Paramecium caudatum) activity; antibacterial activity (in words) ([10]; bacteria of Table I): lacks antibacterial activity
CC[C@H](C)[C@H](NC(=O)CN)C(=O)NCC(=O)N[C@@H](C)C(=O)N[C@H](C(=O)N[C@@H](CC(C)C)C(=O)N[C@@H](CCCCN)C(=O)N[C@H](C(=O)N[C@@H](CC(C)C)C(=O)N[C@H](C(=O)N[C@H](C(=O)NCC(=O)N[C@@H](CC(C)C)C(=O)N1CCC[C@H]1C(=O)N[C@@H](C)C(=O)N[C@@H](CC(C)C)C(=O)N[C@H](C(=O)N[C@@H](CO)C(=O)N[C@@H](Cc1c[nH]c2ccccc12)C(=O)N[C@H](C(=O)N[C@@H](CCCCN)C(=O)N[C@@H](CCCNC(=N)N)C(=O)N[C@@H](CCCCN)C(=O)N[C@@H](CCCNC(=N)N)C(=O)N[C@@H](CCC(N)=O)C(=O)N[C@@H](CCC(N)=O)C(N)=O)[C@@H](C)CC)[C@@H](C)CC)[C@@H](C)O)[C@@H](C)O)C(C)C)C(C)C [Melittin],–,–,–,–,–,–,–,–,–,–,8 to 16 µg/mL,8 to 16 µg/mL,16 to 31 µg/mL,4 to 16 µg/mL,16 to 31 µg/mL,16 to 31 µg/mL,> 250 µg/mL,2 to 4 µg/mL,antibiotic versus hemolytic concentration / selectivity (in words) ([11]; antibiotic activity compared with erythrocyte disruption): fall within a similar concentration range
NCCCCNCCCN [Spermidine],> 500 µg/mL,> 500 µg/mL,> 500 µg/mL,250 to 500 µg/mL,> 500 µg/mL,> 500 µg/mL,> 500 µg/mL,> 260 µg/mL,< 0.5%,inactive as an antibiotic,–,–,–,–,–,–,–,–,–
"C[C@H](CCC(=O)NCCS(=O)(=O)O)[C@H]1CC[C@H]2[C@@H]3CC[C@@H]4C[C@H](OS(=O)(=O)O)CC[C@]4(C)[C@H]3CC[C@]12C [Taurolithocholic Acid 3-sulfate, taurolithocholic acid 3-sulfate]",> 500 µg/mL,> 500 µg/mL,> 500 µg/mL,> 500 µg/mL,> 500 µg/mL,> 500 µg/mL,> 500 µg/mL,> 260 µg/mL,–,inactive as an antibiotic,–,–,–,–,–,–,–,–,–
"GFGSFLGKALKAALKIGANALGGSPQQ-NH2 [CPF, caerulein percursor fragment, Xenopus antimicrobial peptide]",–,–,–,–,–,–,–,–,–,–,8 to 16 µg/mL,8 to 16 µg/mL,8 to 31 µg/mL,31 to 62 µg/mL,62 to 125 µg/mL,62 to 125 µg/mL,> 125 µg/mL,4 to 8 µg/mL,"hemolysis ([11]; 92 μg/ml, 10% erythrocytes in PBS, 37° C., ten minutes, Triton X-100 = 100%, 10 min): 3%"
Magainin II,–,–,–,–,–,–,–,–,–,–,31 to 62 µg/mL,> 250 µg/mL,31 to 62 µg/mL,> 250 µg/mL,125 to 250 µg/mL,125 to 250 µg/mL,> 250 µg/mL,33 to 65 µg/mL,antimicrobial activity after proteinase K digestion [12]: lost all activity on proteinase K digestion
